Reference: US10105437B2, “Epitopes related to coeliac disease” (BTG International Limited, priority 2004, dated 2018)
Where no end group is shown, it is not given here.

Tests used:
Format in all cases: cell-based, human
[1] = tested on: PBMC from HLA DQ8+DQ2- CD subjects; test: Interferon gamma ELISPOT, second round gliadin library in HLA DQ8 subjects
Source text: PBMC from two subjects initially challenged were used to screen the first round “Melbourne” wheat gliadin 20mer library. The 20mer sequences identified using PBMC from these two HLA DQ8 CD subjects were dissected further by screening, in five HLA DQ8+DQ2− CD subjects including the two original subjects, a second round library based on reactive 20mers in the 1st round library. The 2nd round library consisted of screening grade overlapping 16mers, and 13mers predicted to correspond to tTG-mediated deamidation products of epitopes with the potential for deamidation of glutamine at position 1 and/or position 9 (consistent with the HLA DQ8 peptide binding motif). In addition, the 1400 glutenin (HMW and LMW) tTG-pretreated 20mers in the “Melbourne” wheat gluten library were also screened in these five subjects.

[2] = tested on: PBMC from HLA-DQ2+ coeliac subjects; test: Interferon gamma ELISPOT, secalin 20mer first round library after rye challenge; settings: 14 subjects; for number of subjects with > 70% maximal response / subjects with greater than 40% maximal response: after rye challenge; for subjects in whom 20mer was dominant (>70% maximal response) after rye challenge: 20mers pre-treated with tTG, day 6 PBMC
Experimental: (§1) Peptides were initially dissolved in aqueous acetonitrile (50%). Peptides in aqueous acetonitrile were transferred to sterile 96-well plates and diluted in sterile PBS with 1 mM calcium (250 mcg/ml) and then incubated with tTG (25 mcg/ml) (Sigma T5398) for 6 h 37° C. and then stored frozen (−20° C.) until use.
(§2) IFNγ ELISpot assays (Mabtech, Sweden) were performed in 96-well plates (MAIP S-45, Millipore) in which each well contained 25 mcl of peptide solution and 100 mcl of PBMC (2-8×10^5/well) in RPMI containing 10% heat inactivated human AB serum. After development and drying, IFNγ ELISpot plates were assessed using the MAIP automated ELISpot plate counter. Data was then analysed according to a novel algorithm (Expectation Maximization: EM) to define and quantify interferon-gamma responses to 9mer sequences contained within the peptide library (see FIG. 3 and below). 9mer peptides were then rationalised according to an algorithm that assumes redundancy in T-cell recognition, the “IterativeCluster” algorithm (see FIG. 4 and below), by allowing groups of amino acids with similar chemical properties at any one position in the 9mer, or for glutamate to replace glutamine at any position (assuming deamidation may have occurred).
Secalin and hordein 20mer first round peptide libraries were assessed 3 days after completing rye (bread, 100 g/d for 3 days) or barley (boiled, 100 g/d for 3 days) challenge (“day 6” PBMC interferon gamma ELISPOT responses). Although iterative analysis using 2nd and 3rd round peptide libraries to define epitopes has not yet been performed, the 20mers pre-treated with tTG found to induce “potent” responses shared substantial structural similarity to the bioactive peptides identified after wheat challenge. […] The dominant (>70% maximal response) 20mer after rye challenge was usually […] (SEQ ID NO: 1769) (8/14 subjects), or occasionally […] (SEQ ID NO: 1770) (4/14), […] (SEQ ID NO: 1771) (1/14), […] (SEQ ID NO: 1772) (1/14) and/or […] (SEQ ID NO: 1773) (1/14). Additional peptides noted for greater than 40% maximal response in at least 1 subject include: […]

[3] = tested on: PBMC from HLA-DQ2+ coeliac subjects; test: Interferon gamma ELISPOT, hordein 20mer first round library after barley challenge; set-up: key to individual peptide showing maximal response in a single individual (asterisk): *: an asterisk indicates the eight individual peptides showing maximal response in a single individual; settings: for number of subjects with > 70% maximal response / subjects with at least 40% maximal peptide response: 17 subjects
Experimental: as §1, §2
Secalin and hordein 20mer first round peptide libraries were assessed 3 days after completing rye (bread, 100 g/d for 3 days) or barley (boiled, 100 g/d for 3 days) challenge (“day 6” PBMC interferon gamma ELISPOT responses). Although iterative analysis using 2nd and 3rd round peptide libraries to define epitopes has not yet been performed, the 20mers pre-treated with tTG found to induce “potent” responses shared substantial structural similarity to the bioactive peptides identified after wheat challenge. […] The dominant (>70% maximal response) 20mer after rye challenge was usually […] (SEQ ID NO: 1769) (8/14 subjects), or occasionally […] (SEQ ID NO: 1770) (4/14), […] (SEQ ID NO: 1771) (1/14), […] (SEQ ID NO: 1772) (1/14) and/or […] (SEQ ID NO: 1773) (1/14). Additional peptides noted for greater than 40% maximal response in at least 1 subject include:
Typically, the dominant peptides after barley challenge included one of six peptide motifs, or were one of eight other individual 20mers “dominant” in only one of 17 subjects after barley challenge. The six motifs identified:
The barley hordein peptides showing at least 40% maximal peptide response in at least one subject include the following, wherein an asterisk indicates the eight individual peptides showing maximal response in a single individual: […]

Row | Substance | number of subjects with > 70% maximal response [2] | subjects with greater than 40% maximal response [2] | other results
1 | (QE)QPQQPFP(QE): HLA DQ8 gliadin epitope motif, Q or E at marked positions (XQPQQPFPX; not fully specified; printed as (QE)QPQQPFP(QE)) | – | – | effect of deamidation of specific glutamine residues on ELISPOT responses [1]: enhanced or permissive to specific glutamine residues being deamidated
2 | QTQQSIPQPQQPFPQPQQPF (Description of Artificial Sequence: Synthetic gluten peptide) [rye secalin 20mer] | 1 | 3/14 | –
3 | FPQQPQQPFPQPQQQLPLQP (Description of Artificial Sequence: Synthetic gluten peptide) [rye secalin 20mer] | 2 | 3/14 | –
4 | SPQQPQLPFPQPQQPFVVVV (Description of Artificial Sequence: Synthetic gluten peptide) [rye secalin 20mer] | 1 | 4/14 | –
5 | PQQPFPQQPEQIIPQQPQQP (Description of Artificial Sequence: Synthetic gluten peptide) [rye secalin 20mer] | 3 | 5/14 | –
6 | PQTQQPQQPFPQPQQPQQLF (Description of Artificial Sequence: Synthetic gluten peptide) [rye secalin 20mer] | – | – | subjects in whom 20mer was dominant (>70% maximal response) after rye challenge [2]: 1/14
7 | QQPQQLFPQTQQSSPQQPQQ (Description of Artificial Sequence: Synthetic gluten peptide) [rye secalin 20mer] | – | – | subjects in whom 20mer was dominant (>70% maximal response) after rye challenge [2]: 1/14
8 | QQPSIQLSLQQQLNPCKNVL (Description of Artificial Sequence: Synthetic gluten peptide) [rye secalin 20mer] | 1 | 1/14 | –
9 | QQLPLQPQQPFPQPQQPIPQ (Description of Artificial Sequence: Synthetic gluten peptide) [rye secalin 20mer] | 2 | 6/14 | –
10 | FPLQPQQPFPQQPEQIISQQ (Description of Artificial Sequence: Synthetic gluten peptide) [rye secalin 20mer] | 1 | 5/14 | –
11 | PQQLFPLPQQPFPQPQQPFP (Description of Artificial Sequence: Synthetic gluten peptide) [rye secalin 20mer] | – | – | subjects in whom 20mer was dominant (>70% maximal response) after rye challenge [2]: 8/14
12 | SIPQPQQPFPQPQQPFPQSQ (Description of Artificial Sequence: Synthetic gluten peptide) [rye secalin 20mer] | 1 | 4/14 | –
13 | PQQPQRPFAQQPEQIISQQP (Description of Artificial Sequence: Synthetic gluten peptide) [rye secalin 20mer] | 1 | 3/14 | –
14 | QPFPQPQQPTPIQPQQPFPQ (Description of Artificial Sequence: Synthetic gluten peptide) [rye secalin 20mer] | – | – | subjects in whom 20mer was dominant (>70% maximal response) after rye challenge [2]: 4/14
15 | QQPFLLQPQQPFSQPQQPFL (Description of Artificial Sequence: Synthetic gluten peptide) [rye secalin 20mer] | 1 | 1/14 | –
16 | QEQREGVQILLPQSHQQLVG (Description of Artificial Sequence: Synthetic gluten peptide) [rye secalin 20mer] | – | – | subjects in whom 20mer was dominant (>70% maximal response) after rye challenge [2]: 1/14
17 | VGPSGQVSWPQQQPLPQPQQ (Description of Artificial Sequence: Synthetic gluten peptide) [rye secalin 20mer] | 2 | 2/14 | –
18 | PFPQPQQPFSWQPQQPFLQP (Description of Artificial Sequence: Synthetic gluten peptide) [barley hordein 20mer] | – | – | number of subjects with > 70% maximal response [3]: 0; subjects with at least 40% maximal peptide response [3]: 1/17
19 | NMQVGPSGQVEWPQQQPLPQ (Description of Artificial Sequence: Synthetic gluten peptide) [rye secalin 20mer] | 1 | 2/14 | –
20 | FPQYQIPTPLQPQQPFPQQP (Description of Artificial Sequence: Synthetic gluten peptide) [barley hordein 20mer] | – | – | number of subjects with > 70% maximal response [3]: 1; subjects with at least 40% maximal peptide response [3]: 2/17
21 | PWQPQQPFPQPQEPIPQQPQ (Description of Artificial Sequence: Synthetic gluten peptide) [barley hordein 20mer] | – | – | number of subjects with > 70% maximal response [3]: 1; subjects with at least 40% maximal peptide response [3]: 1/17
22 | QSQQQFPQPQQPFPQQPQQP (Description of Artificial Sequence: Synthetic gluten peptide) [barley hordein 20mer] | – | – | number of subjects with > 70% maximal response [3]: 0; subjects with at least 40% maximal peptide response [3]: 1/17
23 | QQPQQPFPLQPQQPVPQQPQ (Description of Artificial Sequence: Synthetic gluten peptide) [rye secalin 20mer] | 1 | 3/14 | –
24 | VSPHPGQQTTVSPHQGQQTT (Description of Artificial Sequence: Synthetic gluten peptide) [barley hordein 20mer] | – | – | individual peptide showing maximal response in a single individual (asterisk) [3]: *; number of subjects with > 70% maximal response [3]: 1; subjects with at least 40% maximal peptide response [3]: 1/17
25 | QQQPFPQQPIPQQPQPYPQQ (Description of Artificial Sequence: Synthetic gluten peptide) [barley hordein 20mer] | – | – | number of subjects with > 70% maximal response [3]: 2; subjects with at least 40% maximal peptide response [3]: 8/17
26 | YPQQPQPFPQQPIPQQPQPY (Description of Artificial Sequence: Synthetic gluten peptide) [barley hordein 20mer] | – | – | number of subjects with > 70% maximal response [3]: 2; subjects with at least 40% maximal peptide response [3]: 6/17
